Laboratory results taken from article PMC10711598, “Erythromycin, retapamulin, pyridoxine, folic acid, and ivermectin inhibit cytopathic effect, papain-like protease, and M^PRO enzymes of SARS-CoV-2” (Frontiers in Cellular and Infection Microbiology, 2023).

Tests used:
SARS-CoV-2 [1] = test system: SARS-CoV-2; design: method as in Caly et al., 2020; conditions: inhibition of viral replication; ref Caly et al., 2020; cited from earlier work
SARS-CoV-2 [2] = test: Inhibition of SARS-CoV-2-induced CPE in Vero cells (neutral red assay); type: cell-based; conditions: for Maximal inhibition of CPE (%): MOI 0.1, 48 h, maximal observed within tested dose range (5-10 µM; pyridoxine 10-20 µM); for IC50: Severe acute respiratory syndrome coronavirus 2, three-parameter model, responses constrained to 0-100%; for Dose at maximal observed inhibition of CPE: within tested dose range
[3] = target: SARS-CoV-2 main protease (MPRO or 3CL) (Severe acute respiratory syndrome coronavirus 2, UniProt P0DTD1); test: SensoLyte 520 SARS-CoV-2 MPRO activity assay; type: biochemical; conditions: for Maximal inhibition of MPRO (%): maximal observed within tested dose range (2.5-10 µM; pyridoxine 5-20 µM); for Dose at maximal observed inhibition of MPRO: within tested dose range
[4] = target: SARS-CoV-2 papain-like protease (Severe acute respiratory syndrome coronavirus 2, UniProt P0DTD1); test: SensoLyte 520 SARS-CoV-2 papain-like protease activity assay; type: biochemical; conditions: for Maximal inhibition of PP (%): maximal observed within tested dose range (2.5-10 µM; pyridoxine 5-20 µM); for Dose at maximal observed inhibition of PP: within tested dose range
Vero cells = test: Toxicity of the drugs alone to Vero cells (cell toxicity study); conditions: all tested doses

Which results are given for Ivermectin?
Reduction in viral load (SARS-CoV-2 [1]): up to 5,000 fold; Maximal inhibition of CPE (%) (SARS-CoV-2 [2]): 10%; Maximal inhibition of MPRO (%) [3]: 38.07%; Dose at maximal observed inhibition of MPRO [3]: 5.0 µM; Maximal inhibition of PP (%) [4]: 34.34%; Dose at maximal observed inhibition of PP [4]: 10 µM

Which results are given for `C=C[C@]1(C)C[C@@H](OC(=O)CS[C@@H]2C[C@H]3CC[C@@H](C2)N3C)[C@]2(C)[C@H](C)CC[C@]3(CCC(=O)[C@H]32)[C@@H](C)[C@@H]1O` [Retapamulin]?
Maximal inhibition of CPE (%) (SARS-CoV-2 [2]): 75%; IC50 (SARS-CoV-2 [2]): 4.23 µM; Dose at maximal observed inhibition of CPE (SARS-CoV-2 [2]): 7.5 µM; Maximal inhibition of MPRO (%) [3]: 33.37%; Dose at maximal observed inhibition of MPRO [3]: 2.5 µM; Maximal inhibition of PP (%) [4]: 20.60%; Dose at maximal observed inhibition of PP [4]: 5 µM

What does the source list for `Nc1nc2ncc(CNc3ccc(C(=O)N[C@@H](CCC(=O)O)C(=O)O)cc3)nc2c(=O)[nH]1` [Folic Acid]?
Maximal inhibition of CPE (%) (SARS-CoV-2 [2]): 42%; Dose at maximal observed inhibition of CPE (SARS-CoV-2 [2]): 5 µM; Toxicity to Vero cells (Vero cells): not found to be toxic; Maximal inhibition of MPRO (%) [3]: 26.8%; Dose at maximal observed inhibition of MPRO [3]: 2.5 µM; Maximal inhibition of PP (%) [4]: 31.99%; Dose at maximal observed inhibition of PP [4]: 5 µM

Which results are given for `CC[C@H]1OC(=O)[C@H](C)[C@@H](O[C@H]2C[C@@](C)(OC)[C@@H](O)[C@H](C)O2)[C@H](C)[C@@H](O[C@@H]2O[C@H](C)C[C@H](N(C)C)[C@H]2O)[C@](C)(O)C[C@@H](C)C(=O)[C@H](C)[C@@H](O)[C@]1(C)O` [Erythromycin]?
Maximal inhibition of CPE (%) (SARS-CoV-2 [2]): 76%; IC50 (SARS-CoV-2 [2]): 3.27 µM; Dose at maximal observed inhibition of CPE (SARS-CoV-2 [2]): 10 µM; Maximal inhibition of MPRO (%) [3]: 30.51%; Dose at maximal observed inhibition of MPRO [3]: 2.5 µM; Maximal inhibition of PP (%) [4]: 29.46%; Dose at maximal observed inhibition of PP [4]: 10.0 µM

What does the source list for `Cc1ncc(CO)c(CO)c1O` [Pyridoxine]?
Maximal inhibition of CPE (%) (SARS-CoV-2 [2]): 63%; IC50 (SARS-CoV-2 [2]): 9.29 µM; Dose at maximal observed inhibition of CPE (SARS-CoV-2 [2]): 20 µM; Maximal inhibition of MPRO (%) [3]: 45.17%; Dose at maximal observed inhibition of MPRO [3]: 20.0 µM; Maximal inhibition of PP (%) [4]: 17.46%; Dose at maximal observed inhibition of PP [4]: 20.0 µM
